Consider 8 compounds from patent publication US7514422B2, “5HT2c receptor modulators” (Arena Pharmaceuticals, Inc., priority 2002, dated 2009).

The IC50 is the concentration that gives 50% inhibition.

The test concerns the target T1, human 5-HT2c receptor (Homo sapiens, UniProt P28335).
T1 construct: expressed in transfected cells; host or cells: HEK293
T1 sequence (P28335 33-458): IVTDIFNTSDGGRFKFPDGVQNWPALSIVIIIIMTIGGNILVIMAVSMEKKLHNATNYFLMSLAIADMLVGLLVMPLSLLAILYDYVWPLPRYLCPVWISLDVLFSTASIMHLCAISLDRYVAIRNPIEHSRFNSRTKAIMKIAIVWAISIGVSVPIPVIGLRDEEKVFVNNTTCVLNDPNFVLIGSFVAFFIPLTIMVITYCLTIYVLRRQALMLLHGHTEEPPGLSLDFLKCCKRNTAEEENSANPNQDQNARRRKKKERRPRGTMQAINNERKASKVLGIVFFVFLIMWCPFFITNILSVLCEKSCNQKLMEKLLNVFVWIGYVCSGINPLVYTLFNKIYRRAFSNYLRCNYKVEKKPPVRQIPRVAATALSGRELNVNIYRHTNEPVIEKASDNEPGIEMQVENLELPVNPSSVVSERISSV
The test is described as follows: Intracellular IP3 Accumulation Assay. It counts as cell-based. As to conditions: HEK293 cells transfected with human 5-HT2c receptor; averages of at least two trials; read-out: 5-HT2C (IC50) IP Accumulation Assay. Here is the method:
HEK293 cells were transfected in 15 cm sterile dishes with or without (control) 16 ug of human 5-HT2c receptor cDNA using 25 ul of lipofectamine. Cells were then incubated for 34 hours at 37° C/5% CO2 and then transfection media was removed and replaced with 100 ul of DMEM. Cells were then plated onto […] sterile dishes. The next day cells were plated into 96 well PDL microtiter plates at a density of 55K/0.2 ml. Six hours latter, media was exchanged with [^3H]inositol (0.25 uCi/well) in inositol free DMEM and plates were incubated at 37° C./5% CO2 overnight. The next day, wells were aspirated and 200 ul of DMEM containing test compound, 10 uM pargyline, and 10 mM LiCl was added to appropriate wells. Plates were then incubated at 37° C./5% CO2 for three hours followed aspiration and by addition of fresh ice cold stop solution (1M KOH, 19 mM Na-borate, 3.8 mM EDTA) to each well. Plates were kept on ice for 5-10 min and the wells were neutralized by addition of 200 ul of fresh ice cold neutralization solution (7.5% HCl). Plates were then frozen until further processing is desired. The lysate was then transferred into 1.5 ml Eppendorf tubes and 1 ml of chloroform/methanol (1:2) was added/tube. The solution was vortexed for 15 seconds and the upper phase was applied to a Biorad AG1-X8™ anion exchange resin (100-200 mesh). First, the resin was washed with water at 1:1.25 W/V and 0.9 ml of upper phase was loaded onto the column. The column was then washed with 10 ml of 5 mM myo-inositol and 10 ml of 5 mM Na-borate/60 mM Na-formate. The inositol tris phosphates were eluted into scintillation vials containing 10 ml of scintillation cocktail with 2 ml of 0.1 M formic acid/1 M ammonium formate. The columns were regenerated by washing with 10 ml of 0.1 M formic acid/3M ammonium formate and rinsed twice with dd H2O and stored at 4° C. in water.

On to `COc1cc2c(cc1Br)C(C)CNCC2` (racemic) [Example 1, (R,S) 8-Bromo-7-methoxy-1-methyl-2,3,4,5-tetrahydro-1H-3-benzazepine], for which the IC50 was determined as 4.2 nM.

With `COc1cc2c(cc1Cl)C(C)CNCC2` (racemic) [Example 2, (R,S) 8-Chloro-7-methoxy-1-methyl-2,3,4,5-tetrahydro-1H-3-benzazepine], the IC50 was 4.5 nM.

On to `COc1cc2c(cc1I)C(C)CNCC2` (racemic) [Example 3, (R,S) 8-Iodo-7-methoxy-1-methyl-2,3,4,5taetrhydro-1H-3-benzazepine], for which the IC50 was determined as 1.4 nM.

Turning to `CC1CNCCc2cc(O)c(Br)cc21` (racemic) [Example 4, (R,S) 8-Bromo-7-hydroxy-1-methyl-2,3,4,5tetrahydro-1H-3-benzazepine], the IC50 was found to be 2.1 nM.

As for `C=CCOc1cc2c(cc1Br)C(C)CNCC2` (racemic) [Example 5, (R,S) 7-Allyloxy-8-bromo-1-methyl-2,3,4,5tetrahydro-1H-3-benzazepine], the IC50 stood at 12.1 nM.

For `C=CCOc1cc2c(cc1I)C(C)CNCC2` (racemic) [Example 12, (R,S) 7-Allyloxy-8-iodo-1-methyl-2,3,4,5-tetrahydro-1H-3-benzazepine], the IC50 turned out to be 6.3 nM.

`CCC1CNCCc2cc(OC)c(Br)cc21` (racemic) [Example 19, (R,S) 8-Bromo-1-ethyl-7-methoxy-2,3,4,5-tetrahydro-1H-3-benzazepine]: the half-maximal inhibitory concentration (IC50) is 18 nM.

Regarding `CC1CNCCc2ccc(Br)cc21` (racemic) [Example 32, (R,S) 8-Bromo-1-methyl-2,3,4,5tetrahydro-1H-3-benzazepine], the IC50 amounted to 2.1 nM.
